Usually Kd stands for the constant that tells how readily two partners part at equilibrium. Higher therefore signals weaker binding.

In the assay the target is Aβ42 (β-amyloid peptide) (Homo sapiens, UniProt P05067). Put plainly: fluorescence polarization of the intrinsically fluorescent probe. The class given is binding. Background: Fluorescence polarisation rises when a labelled molecule tumbles more slowly, as on binding a larger partner.
Aβ42 (β-amyloid peptide), sequence (P05067 672-713 limits assumed): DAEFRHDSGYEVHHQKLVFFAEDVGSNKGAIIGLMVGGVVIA

The molecule `COc1cc(C=CC(=O)C(Cc2cn(CCCCCCNC(=O)CCNC(=O)CCNC(=O)COC3CCC4(C)C(=CCC5C4CCC4(C)C(C(C)CCCC(C)C)CCC54)C3)nn2)C(=O)C=Cc2ccc(O)c(OC)c2)ccc1O` (stereo not shown) [compound 7, BMAOI 14] had a Kd of 830 nM.

(Values after article PMC3367438 (2011).)
